Results: paper PMC10115808, “Parahydrogen-induced polarization allows 2000-fold signal enhancement in biologically active derivatives of the peptide-based drug octreotide” (Scientific Reports, 2023)
“Also recorded” adds a separate entry of the source.

Legend:
[1] = system: A549 cells; experiment: Cell binding assay of TAMRA-conjugated octreotide variants on A549 cells (flow cytometry); set-up: species or system human; details: neat TAMRA versus fluorescence marked octreotide 1, Fig. S-23
Protocol: (§1) In order to check whether the modifications on the octreotide have an influence on its interaction with somatostatin receptors in living cells, a binding study on different human cell lines was performed. For the detection of the bound peptides, octreotide and the derivatives were further modified by attaching the fluorophore TAMRA to the N terminus. To prevent the fluorophore from interacting with the binding site of octreotide derivatives, a 4,7,10-trioxa-1,13-tridecanediamine succinate (TTDS) spacer was added between the peptide N terminus and the N-hydroxy succinimide (NHS)-activated fluorophore. Both, the linker and the fluorophore, were attached to the peptides by manual SPPS (Fig. 5).
(§2) Human lung cancer cells A549 and human embryonic kidney cells HEK293 were utilized for the binding studies. A549 are widely used in binding studies with somatostatin analogues[61],[62]. […]
(§3) A549 cells (DSMZ ACC 107) and HEK293 cell s (DSMZ ACC 308) were cultured in complete growth medium consisting of Dulbecco’s MEM with 10 % fetal bovine serum (FBS) and 1x penicillin/streptomycin. […] After incubation, the cells were washed three times with ice -cold PBS-F. Using a CytoFlexS flow cytometer, PE -fluorescence was measured. […]

[2] = system: HEK293 cells; experiment: Cell binding assay of TAMRA-conjugated octreotide variants on HEK293 cells (flow cytometry); set-up: species or system human; details: neat TAMRA versus fluorescence marked octreotide 1, Fig. S-24
Protocol: as §1, §2, §3

With TAMRA the “Binding efficiency (fluorescence) of TAMRA alone compared to TAMRA-linker-octreotide” value [1] was “about half the fluorescence; also recorded: about two times reduced binding efficiency” and the “Binding efficiency (fluorescence) of TAMRA alone compared to TAMRA-linker-octreotide” value [2] was “about half the fluorescence; also recorded: about two times reduced binding efficiency”.
